The test system of one data set is MSCs. Description: Stress inducers/inhibitors: Jagged1 expression and ROS production in MSCs. It is filed as cell-based, mouse. The text has this:
Next, which signaling pathway is responsible for Jagged1 induction after chemotherapy in osteoblast lineage cells was investigated. Chemotherapy generates many stress responses in cells, including endoplasmic reticulum stress (ER stress), and oxidative stress. Some of the stress conditions have been associated with the regulation of Jagged1 expression (Paul et al., 2014). Several treatments were used to mimic or inhibit these stress responses and then Jagged1 mRNA and protein levels were analyzed within the cells.
293T, H29-Clone #7, MC3T3-E1 Clone #4(denoted as MC3T3 for abbreviation thereafter), MCF7TR, mouse mesenchymal stromal cell (MSC, isolated from BALB/c), 4T1.2, SCP28, SCP28-Vector and -Jagged1 cells, SCP28, RAW264.7, and SUM1315-M1B1 cells were cultured according to American Type Culture Collection instructions and the inventors' previous studies (Ell et al., 2013; Ren et al., 2008; Sethi et al., 2011; Zheng et al., 2014). MSC cells were derived previously and were cultured in DMEM supplemented with 10% FBS, 30 ng/ml bFGF, 100 U/ml penicillin, and 100 μg/ml streptomycin (Ren et al., 2008). All plasmids were transfected into different cell lines using Lipofectamine 2000 following the manufacturer's manual (Life Technologies, CA, USA). To generate stable cell lines, a pLEX-MCS based lentivirus vector or a pMSCV-hygro based retrovirus vector was used in our study. Lentiviruses were packaged in HEK293T cells while retroviruses were packaged by using H29 cell line. Conditional media from these packaging cells containing viruses were collected 2 days and 3 days after transfection. Recipient cell lines were exposed to conditional media containing viruses supplemented with 2 μg/mL Polybrene for 48 h. Infected cells were selected with puromycin or hygromycin to generate stable expressing cell lines. 293T and H29clone #7 are cell lines from female humans. All other cancer cell lines are breast cancer cell lines from either female human or mouse.

The conditions of data set [1]: mouse, in vivo.
Experimental: (§1) To analyze liver toxicity, the activity of alanine aminotransferase (ALT) and aspartate aminotransferase (AST) in the sera of these mice after the respective drug treatments was measured.
(§2) For IgG or 15D11 antibody treatment, mice were i.p. injected at the dosing of 10 mg/kg, twice a week.
Data set [2] is described as follows: In vivo toxicity of 15D11 (body weight, GI histology, ALT/AST, CBC, T cells).
Experimental: as §1, §2
The test system of data set [3] is Notch downstream genes (human HES2, HEY1, HEY2). Nature of the data set: Notch downstream gene expression in tumor cells co-cultured with MSC after chemotherapy. It counts as cell-based. Particulars: co-culture tumor cells after chemotherapy.

Read-outs that look alike come from different tables or passages of the source.

In the case of `C[C@H]1CCC/C=C/[C@@H]2C[C@H](O)C[C@H]2[C@H](O)/C=C/C(=O)O1` [Brefeldin A (BFA), Brefeldin A], in the data set with MSCs, the “Jagged1 expression in MSCs” value was “did not induce Jagged1 expression”.

With `ClC(Cl)(Cl)Cl` [CCl4], the “liver toxicity: ALT and AST activity in sera” value in data set [1] is on record as “dramatic increase”.

As to `O=S1(=O)N[C@@]2(CN1CC(F)(F)F)[C@@H]1CC[C@H]2Cc2ccc(/C=C/CN3CCC(C(F)(F)F)CC3)cc2C1` [GSI], in data set [2] (15D11 10 mg/kg, twice a week), the “general toxicity based on body weight measurement” value was “significant weight loss”. Moreover, in data set [2] (mouse, in vivo), the “GI track toxicity (H&E and Alcian blue staining)” value is “significant goblet cell metaplasia”; the “liver toxicity: ALT and AST activity in sera” value is “no change”.

Regarding `OO` [H2O2], the “Jagged1 expression in MSCs” value in the data set with MSCs is recorded as “induced a strong Jagged1 expression”.

For the compound `CC(=O)N[C@@H](CS)C(=O)O` [N-Acetyl Cysteine], in the data set on MSCs (MSCs), the “block of cisplatin and docetaxel induced ROS production” value is given as “completely blocked”; the “block of cisplatin-induced Jagged1 expression” value is given as “completely blocked”.

In the case of `CC(=O)O[C@@]12CO[C@@H]1C[C@H](O)[C@@]1(C)C(=O)[C@H](O)C3=C(C)[C@@H](OC(=O)[C@H](O)[C@@H](NC(=O)OC(C)(C)C)c4ccccc4)C[C@@](O)([C@@H](OC(=O)c4ccccc4)[C@H]21)C3(C)C` [docetaxel], in data set [3], the “Notch downstream genes HES2, HEY1, HEY2” value is “significantly upregulated”. Further, the “ROS production in MSCs” value in the data set on MSCs is “induced ROS production”.

Consider Tunicamycin, for which the “Jagged1 expression in MSCs” value with MSCs was “did not induce Jagged1 expression”.
